This is an account of results in the METLIN SMRT retention time set (Domingo-Almenara et al. 2019).

Structures are written as SMILES.

This data set is described as follows: gradient 5% acetonitrile 3 min, to 50% in 2 min, to 85% in 15 min, held 3 min, 100 µL/min. The following applies: column: Zorbax Extend-C18 2.1 x 50 mm; eluents: water / acetonitrile, 0.1% formic acid. The method, boiled down: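 Each retention time is based on an adduct peak selected computationally and verified by manual inspection. Measurements used HPLC–quadrupole time-of-flight mass spectrometry in positive and negative ionization mode on mixtures of ~100 pure standards. Chromatography ran on a Zorbax Extend-C18 column (2.1 × 50 mm, 1.8 μm) at 100 μL/min with water and acetonitrile, each containing 0.1% formic acid, and dead and dwell volumes of 40 μL and 900 μL.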
As to `O=C(NCCc1c[nH]c2ccc(Cl)cc12)C1CCN(c2ccncc2)CC1`, the RP-LC retention time came out at 643 s.

Consider `CC(C)c1nnc2ccc(N3CCCC3)nn12`, for which the RP-LC retention time was found to be 819 s. The same measure for `CC(C)Cn1nc2n(c1=O)CCN(S(=O)(=O)c1ccc(C(C)(C)C)cc1)CC2`: 631 s; for `COc1ccc(Cl)cc1NC(=O)C1c2cc(OC)c(OC)cc2C(=O)N(C)C1c1cccnc1` (stereo not drawn): 703 s; for `O=C(Nc1ccccc1)N1CC(c2nc(CCOCC3CC3)no2)C1`: 792 s. For `COCc1cc(=O)n(CC(=O)Nc2cc(C)cc(C)c2)c(N2CCOCC2)n1` the value was 893 s; for `Cc1ccc(NC(=O)CN2C(=O)CCCc3cc(S(=O)(=O)N4CCCC4)ccc32)cc1`, 855 s; for `CCc1ccc(NC(=O)N2CCc3nc(C)ncc3C2)cc1`, 695 s. For `Cc1ccc2c(c1)NC(=O)c1cc(NC(=O)Cc3ccc(F)cc3)ccc1O2` the value was 842 s; for `COc1ccc(NC(=O)C2CCN(S(=O)(=O)c3ccc4[nH]c(=O)sc4c3)CC2)cc1Cl`, 821 s. Compound `Cc1cc(C)c(S(=O)(=O)NC2CCCN(c3ccc(=O)n(C)n3)C2)c(C)c1` (stereo not drawn) came in with an RP-LC retention time of 844 s. In turn, `CC(C)n1cc(S(=O)(=O)Nc2ccc(F)cc2Cl)c2cccnc21` yielded an RP-LC retention time of 989 s. Turning to `Cc1nn(-c2ccc(F)cc2)c2nc(N3CCCC(C(=O)NCc4cccc(Cl)c4)C3)sc12` (stereo not drawn), the RP-LC retention time turned out to be 1200 s. For `c1ccc(-c2cc(NCc3ccccn3)n3ncc(-c4ccccc4)c3n2)cc1` the value was 1180 s. The same measure for `CC(C)NC(=O)N1CCC(c2nc3cccnc3n2C)C1` (stereo not drawn): 572 s. The same measure for `CC(=O)Nc1cccc2c(C(=O)NCCC(C)C)ccnc12`: 777 s. The compound `Cc1ccc(C(=O)N2CCN(c3cc(-c4cccs4)[nH]n3)CC2)c(C)c1` gave an RP-LC retention time of 831 s.

As for `CCN1c2ccc(C)cc2C(=O)NC12CCN(C(=O)c1cc(C)cc(C)c1)CC2`, the RP-LC retention time was 912 s.

In the case of `O=C(NCc1ccc(F)cc1F)C1CCCN(c2ncnc3c2oc2ccccc23)C1` (stereo not drawn), the RP-LC retention time is 762 s. For `O=C(CN1C(=O)c2ccccc2C1=O)Nc1ccc2c(c1)N(C(=O)c1ccco1)CCC2` the value was 738 s. For `Cc1ccsc1C(=O)Nc1cnc(N2CCCCC2)nc1` the value was 915 s; for `CS(=O)(=O)N1CCC(CNC(=O)C(=O)Nc2cc(Cl)ccc2C#N)CC1`, 743 s. For `CCOc1ccc(-c2cc3c(=O)n(Cc4nc(-c5ccc(CC)cc5)no4)ncn3n2)cc1` the value was 1300 s; for `Cc1ccc(C(=O)N2CCC(CCOCC3CC3)CC2)cn1`, 660 s; for `CCC(C(=O)N1CCN(c2ccccn2)CC1)n1nc(C)c2nn(-c3ccccc3)c(C)c2c1=O` (stereo not drawn), 669 s. As to `COc1ccc2[nH]c(C(=O)N3CC(n4cc(COCC5CC5)nn4)C3)cc2c1`, the RP-LC retention time was determined as 742 s. Compound `COC(=O)CNC(=O)Nc1ccc2nc(-c3ccccc3)cc(OC)c2c1` showed an RP-LC retention time of 629 s. The same measure for `COc1ccc(-c2noc(CNC(=O)Nc3ccc(Cl)cc3)n2)cc1OC`: 852 s; for `CCCn1ccc2oc(C)c(C(=O)NC(C)c3ccc(OCC)cc3)c2c1=O` (stereo not drawn): 1070 s. The compound `Cc1ccc(=O)n(CCNC(=O)c2ccc3nsnc3c2)n1` displayed an RP-LC retention time of 619 s. The same measure for `Cc1ccc(-c2nnc(-c3ccc(Br)cc3)o2)cc1S(=O)(=O)N(C)C`: 1090 s. For `COc1ccc(NC(=O)C2CN(S(C)(=O)=O)CC23CCCCC3)cc1` (stereo not drawn) the value was 852 s; for `Cc1nc(-c2noc(-c3ccncc3)n2)cn1CC(=O)N1CCc2ccccc21`, 678 s. For `CCOC(=O)CCNC(=O)N1c2ccccc2CC1c1nc(C2CC2)no1` (stereo not drawn) the value was 853 s; for `CCOc1cccc(CN2C[C@@H]3C(=O)N(CCN4CCc5ccccc5C4)C(=O)[C@@H]3C2)c1`, 622 s; for `COc1ccc(NC(=O)c2cnc3c(c2)c(=O)n(C)c(=O)n3C)cc1`, 732 s. `COc1ccc(Br)c(-c2nnc(C)o2)c1`: the RP-LC retention time was 797 s. The same measure for `CC(C)c1cccc(NC(=O)c2nc(N3CCSCC3)c3cnn(C)c3n2)c1`: 1040 s. The same measure for `CCCc1ccc(S(=O)(=O)N2CCC3(CC2)NCCN=C3NCc2cccc(OC)c2)cc1`: 834 s; for `COc1cccc(C(=O)CC2(O)C(=O)Nc3ccc(C)cc32)c1` (stereo not drawn): 720 s. The same measure for `Cc1ccc(NC(=O)C2CCCN(S(=O)(=O)c3c[nH]c(C(=O)N4CCCCCC4)c3)C2)cc1F` (stereo not drawn): 652 s; for `CCc1ccc(C2=C(C)C(N3CCCN(C(=O)CC4CCCC4)CC3)=NS2(=O)=O)cc1`: 984 s. `Cc1nc(-c2csc(S(=O)(=O)N3CCC(C(=O)NCCC4=CCCCC4)CC3)c2)no1`: the RP-LC retention time was 971 s. For `CCCS(=O)(=O)c1nc2ccc(NS(=O)(=O)c3cc(C)cc(C)c3)cc2s1` the value was 998 s. The same measure for `O=S(=O)(c1ccc(Cl)cc1)N1CCC(c2nc(-c3cccnc3)no2)CC1`: 961 s; for `O=C(C1CCN(S(=O)(=O)c2ccc(-c3noc(-c4ccncc4)n3)cc2)CC1)N1CCCC1`: 814 s; for `Cc1sc2ccn(C)c(=O)c2c1C(=O)NCCN1CCc2ccccc2C1`: 687 s. The same measure for `CCn1ccc2oc(C)c(C(=O)NCc3cc(C)ccc3C)c2c1=O`: 878 s.

`Cc1c(S(=O)(=O)Nc2cccc(-c3ccc4ccccc4n3)c2)cnn1C(F)F` returned an RP-LC retention time of 947 s. For `Fc1ccc(CSc2ncnc3nc[nH]c23)cc1` the value was 719 s; for `O=C(NCc1cccs1)C1CCN(c2cnn(Cc3ccccc3)c(=O)c2)CC1`, 742 s; for `Cc1nn(CC(=O)NCc2cc(F)cc(F)c2)c(=O)c2nc(-c3ccccc3)sc12`, 891 s.

Compound `O=c1c2cc(-c3ccc(F)cc3)nn2ccn1Cc1noc(CN2CCCCCCC2)n1` displayed an RP-LC retention time of 719 s.

`Cc1ccc(NC(=O)Cn2cnc3nc(N4CCCC(C(=O)NC5CC5)C4)sc3c2=O)cc1` (stereo not drawn) came in with an RP-LC retention time of 674 s. The same measure for `O=C(NCc1ccccc1F)c1ccc(NC(=O)C2CCC2)cc1N1CCOCC1`: 853 s; for `Cc1oc(C2CCN(S(=O)(=O)c3ccc(C(C)C)cc3)CC2)nc1C(=O)N(C)C`: 966 s; for `O=C(NCC(c1ccc2c(c1)OCO2)N1CCN(c2ccccc2F)CC1)c1cnccn1` (stereo not drawn): 593 s. For `CCn1c(=O)sc2cc(S(=O)(=O)N3CCC(C(=O)Nc4ccccc4)CC3)ccc21` the value was 878 s; for `CCCOc1ccc(CN(C(=O)Cc2coc3ccc(C)cc23)C2CCS(=O)(=O)C2)cc1` (stereo not drawn), 1130 s; for `CCOC(=O)CNC(=O)c1cn(CC)nc1S(=O)(=O)N1CCN(c2ccccc2OCC)CC1`, 962 s. The same measure for `Cn1c(N2CCCC(C(=O)NCCCN3CCN(c4ccccc4)CC3)C2)cc(=O)n(C)c1=O` (stereo not drawn): 600 s. `C=CCn1c(=O)c2ccccc2n(Cc2nc(-c3ccc(C)c(C)c3)no2)c1=O` came in with an RP-LC retention time of 1140 s.

As to `Cc1ccn2cc(-c3cccc(NS(=O)(=O)c4cc(C)c(C)cc4C)c3)nc2c1`, the RP-LC retention time worked out at 732 s. For `Cc1ccc(-c2nc3cnccn3c2NCCC(=O)NC(C)C)cc1` the value was 618 s; for `O=C(COc1cccc2c1CCN(Cc1ccccc1F)C2=O)NCc1ccco1`, 790 s. For `O=C(Nc1cnc(-c2ccc(F)cc2)nc1)c1ccccc1` the value was 961 s; for `CSc1ccc(NC(=O)N2CCN(C3=CC4=NCC(C)N4C=N3)CC2)cc1` (stereo not drawn), 638 s.

For the compound `O=C(CN1C(=O)COc2ccc(C(=O)N3CCCC3)cc21)NCc1ccc2c(c1)OCO2`, the RP-LC retention time was found to be 682 s.

`COC[C@@H]1OCCN(Cc2ccc(C)c(C)c2)[C@H]1c1ccccc1` yielded an RP-LC retention time of 724 s. For `CCc1ccccc1NS(=O)(=O)c1ccc(-c2nnc(C3CCC3)o2)o1` the value was 960 s; for `Cc1[nH]c(C(=O)N2CCC(CC(=O)NCCN3CCCCCC3)CC2)c(C)c1C`, 626 s.

The compound `COc1ccc(NC(=O)CCNc2cnc3cnccn23)cc1Cl` returned an RP-LC retention time of 603 s. The same measure for `Cc1ccccc1-c1nnc(CSc2nnc(NC(=O)CCc3ccccc3)s2)o1`: 977 s.

As to `Cc1nnsc1C(=O)Nc1nnc(SCC(=O)NCc2ccco2)s1`, the RP-LC retention time came to 692 s. For `CCN1CCn2cc(S(=O)(=O)Nc3ccc(F)cc3C)cc2C1=O` the value was 730 s; for `COC(=O)c1cnc2nc(C)ccc2c1Nc1ccc(C)c(Cl)c1`, 733 s; for `CCN1C(=O)CCC2(C(=O)Nc3ccc(N4CCOCC4)cc3)CCCC=C12` (stereo not drawn), 663 s. For `CCOC(=O)c1nnc2c(-c3ccc(Cl)cc3)c(C)nn2c1N` the value was 872 s.
